Reference: patent US11053204B2, “Pyrimidinyloxy benzene derivatives as herbicides” (FMC Corporation, priority 2015, dated 2021)

Legend:
Type in all cases: in vivo
[1] = test system: Italian ryegrass (Lolium multiflorum); assay: Test A postemergence, visual injury rating
Procedure, shortened: (§1)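 Visual 0–100 rating (100 = complete control) taken about 10 d post-treatment relative to untreated checks. Preemergence: directed soil spray on sown loam/sand pots. Postemergence: seedlings 2–10 cm, 1–2 leaf. Non-phytotoxic solvent formulation with surfactant.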

[2] = test system: wheat (Triticum aestivum); assay: Test A postemergence, visual injury rating
Procedure, shortened: as §1

[3] = test system: blackgrass (Alopecurus myosuroides); assay: Test A postemergence, visual injury rating
Procedure, shortened: as §1

[4] = test system: giant foxtail (Setaria faberii); assay: Test A postemergence, visual injury rating
Procedure, shortened: as §1

corn (Zea mays) = assay: Test A postemergence, visual injury rating
Procedure, shortened: as §1

[5] = test system: barnyardgrass (Echinochloa crus-galli); assay: Test A postemergence, visual injury rating; details: 0 to 100 scale, 0 is no effect, 100 is complete control, approximately 10 days
Procedure, shortened: as §1

[6] = test system: pigweed (Amaranthus retroflexus); assay: Test A postemergence, visual injury rating
Procedure, shortened: as §1

[7] = test system: galium (catchweed bedstraw, Galium aparine); assay: Test A postemergence, visual injury rating
Procedure, shortened: as §1

[8] = test system: ragweed (common ragweed, Ambrosia elatior); assay: Test A postemergence, visual injury rating
Procedure, shortened: as §1

kochia (Kochia scoparia) [9] = assay: Test A postemergence, visual injury rating
Procedure, shortened: as §1

kochia (Kochia scoparia) [10] = assay: Test C preemergence, plant response rating
[11] = test system: ducksalad (Heteranthera limosa); assay: Test B flooded paddy test, plant response rating; details: 250 g ai/ha; Flood; scale of 0 to 100 where 0 is no effect and 100 is complete control; 13 to 15 days
Procedure, shortened: (§2)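 Under a constant 3 cm flood, test compounds went directly into the paddy water. Following 13 to 15 days of greenhouse growth, treated species and controls were compared by eye.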

[12] = test system: barnyardgrass (Echinochloa crus-galli); assay: Test B flooded paddy test, plant response rating; details: 250 g ai/ha; Flood; scale of 0 to 100 where 0 is no effect and 100 is complete control; 13 to 15 days
Procedure, shortened: as §2

[13] = test system: sedge, umbrella (small-flower umbrella sedge, Cyperus difformis); assay: Test B flooded paddy test, plant response rating; details: 250 g ai/ha; Flood; scale of 0 to 100 where 0 is no effect and 100 is complete control; 13 to 15 days
Procedure, shortened: as §2

rice (Oryza sativa) = assay: Test B flooded paddy test, plant response rating; details: 250 g ai/ha; Flood; scale of 0 to 100 where 0 is no effect and 100 is complete control; 13 to 15 days
Procedure, shortened: as §2

[14] = test system: surinam grass (Brachiaria decumbens); assay: Test C postemergence, plant response rating
Procedure, shortened: (§3)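 Both timings shared one formulation, a non-phytotoxic solvent mixture with surfactant, and a greenhouse period of 13 to 15 d. Preemergence used seeded loam/sand or silt loam soil, postemergence used 2 to 18 cm plants; visual ratings ran from 0 (no effect) to 100 (complete control).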

[15] = test system: johnsongrass (Sorghum halepense); assay: Test C postemergence, plant response rating; details: for Johnsongrass plant response rating: scale 0 to 100 (0 no effect, 100 complete control)
Procedure, shortened: as §3

[16] = test system: wild poinsettia (Euphorbia heterophylla); assay: Test C postemergence, plant response rating; details: for Poinsettia, Wild plant response rating: scale 0 to 100 (0 no effect, 100 complete control)
Procedure, shortened: as §3

[17] = 31 g ai/ha, 0 to 100 scale (0 no effect, 100 complete control)
[18] = 125 g ai/ha, 0 to 100 scale, 0 is no effect, 100 is complete control, approximately 10 days

N#CC(CCCC(F)(F)F)c1ccccc1Oc1ncc(Cl)cn1 (centres unmarked) [Compound 144]
Ryegrass, Italian plant response rating [1, 17]: 30 | Ryegrass, Italian plant response rating [1, 18]: 80 | Wheat plant response rating [2, 17]: 10 | Wheat plant response rating [2, 18]: 60 | Blackgrass plant response rating [3, 17]: 50 | Blackgrass plant response rating [3, 18]: 90 | Foxtail, Giant plant response rating [4, 17]: 60 | Foxtail, Giant plant response rating [4, 18]: 90 | Corn plant response rating (corn (Zea mays); [17]): 20 | Corn plant response rating (corn (Zea mays); [18]): 80 | Barnyardgrass plant response rating ([5]; 31 g ai/ha): 40 | Barnyardgrass plant response rating ([5]; 125 g ai/ha): 90 | Pigweed plant response rating [6, 17]: 90 | Pigweed plant response rating [6, 18]: 100 | Galium plant response rating [7, 17]: 40 | Galium plant response rating [7, 18]: 100 | Ragweed plant response rating [8, 17]: 10 | Ragweed plant response rating [8, 18]: 10 | Kochia plant response rating (kochia (Kochia scoparia) [9]; [17]): 90 | Kochia plant response rating (kochia (Kochia scoparia) [9]; [18]): 100 | Plant response rating, Kochia (kochia (Kochia scoparia) [10]; 31 g ai/ha, scale 0 to 100): 90 | Plant response rating, Kochia (kochia (Kochia scoparia) [10]; 62 g ai/ha, scale 0 to 100): 100 | Plant response rating, Kochia (kochia (Kochia scoparia) [10]; 125 g ai/ha, scale of 0 to 100): 100 | Plant response rating, Ducksalad [11]: 100 | Plant response rating, Barnyardgrass [12]: 70 | Plant response rating, Sedge, Umbrella [13]: 100 | Plant response rating, Rice (rice (Oryza sativa)): 35 | Plant response rating, Surinam Grass ([14]; 16 g ai/ha, scale of 0 to 100): 10 | Plant response rating, Surinam Grass ([14]; 31 g ai/ha, scale 0 to 100): 20 | Surinam Grass plant response rating ([14]; 125 g ai/ha, scale 0 to 100 (0 no effect, 100 complete control)): 25 | Plant response rating, Johnsongrass ([15]; 16 g ai/ha, scale of 0 to 100): 5 | Plant response rating, Johnsongrass ([15]; 31 g ai/ha, scale 0 to 100): 5 | Johnsongrass plant response rating ([15]; 62 g ai/ha): 5 | Johnsongrass plant response rating ([15]; 125 g ai/ha): 5 | Plant response rating, Poinsettia, Wild ([16]; 16 g ai/ha, scale of 0 to 100): 30 | Plant response rating, Poinsettia, Wild ([16]; 31 g ai/ha, scale 0 to 100): 35 | Poinsettia, Wild plant response rating ([16]; 62 g ai/ha): 50 | Poinsettia, Wild plant response rating ([16]; 125 g ai/ha): 60
